Assay results as given in DBAASP.
Values after ≈ are worked out from the molar mass of the structure shown. Values joined by “and” are separate entries in the source; they are usually repeats but may differ in a detail not shown here. Equal values may be shown once.

Legend:
Assay in all cases: ≥ marks a high value that may be exact or a test limit, other limits are often not marked, values filed in µg/mL are converted to µM
[1] = test system: Escherichia coli K12 MG1655
[2] = test system: Streptococcus mutans JCM 5705
[3] = test system: Porphyromonas gingivalis ATCC 33277
[4] = test system: Candida albicans NBRC 1385
[5] = test system: Cutibacterium acnes JCM 6473
Escherichia coli JW0013 = test system: Escherichia coli JW0013
[6] = test system: Escherichia coli NCTC 10418
[7] = test system: Candida albicans NCPF 1467
[8] = test system: Staphylococcus aureus NCTC 10788
[9] = test system: Salmonella enterica subsp. enterica serovar Typhimurium ATCC 14028
[10] = test system: Escherichia coli ATCC 11775
[11] = test system: Staphylococcus aureus CCT 6538
[12] = test system: Salmonella enterica subsp. enterica serovar Choleraesuis ATCC 10708
[13] = test system: Escherichia coli ATCC 25922
[14] = test system: Pseudomonas aeruginosa ATCC 15422
[15] = test system: Bacillus thuringiensis ATCC 10792
[16] = test system: Pseudomonas aeruginosa ATCC 13388
[17] = test system: Streptococcus mutans AU159
[18] = test system: Bacillus cereus ATCC 11778
[19] = test system: Micrococcus luteus ATCC 4698
[20] = test system: Staphylococcus aureus CCT 2580
[21] = test system: Staphylococcus aureus ATCC 25923
[22] = test system: Enterococcus faecium CCT 5079
[23] = test system: Escherichia coli CCT 1457
[24] = test system: Enterococcus hirae ATCC 10541
[25] = test system: Staphylococcus epidermidis ATCC 12228
[26] = test system: Streptococcus pneumoniae ATCC 11733
[27] = test system: Acinetobacter baumannii KCTC 2508
[28] = test system: Bacillus subtilis KCTC 2217
Escherichia coli MG1655 = test system: Escherichia coli MG1655
Bacillus subtilis 168 HT = test system: Bacillus subtilis 168 HT

CC[C@H](C)[C@H](NC(=O)CNC(=O)[C@@H](NC(=O)[C@H](CCCCN)NC(=O)[C@H](C)NC(=O)[C@H](CC(C)C)NC(=O)[C@H](CS)NC(=O)[C@H](CCCCN)NC(=O)[C@H](Cc1c[nH]c2ccccc12)NC(=O)[C@@H](N)CCCCN)C(C)C)C(=O)N[C@@H](C)C(=O)N[C@@H](C)C(=O)N[C@@H](Cc1cnc[nH]1)C(=O)O [KWKCLAKVGIAAH] showed an MIC [1] of at least 89.8 µM.
C[C@@H](O)[C@H](NC(=O)[C@H](CCCCN)NC(=O)[C@H](CCCCN)NC(=O)[C@H](CO)NC(=O)[C@H](CCCN=C(N)N)NC(=O)[C@H](Cc1c[nH]c2ccccc12)NC(=O)[C@H](CCC(=O)O)NC(=O)[C@H](CCCN=C(N)N)NC(=O)[C@H](CO)NC(=O)[C@H](CCCCN)NC(=O)[C@@H](N)CCCN=C(N)N)C(=O)N[C@@H](CCC(N)=O)C(=O)N1CCC[C@H]1C(=O)N[C@@H](CCCN=C(N)N)C(=O)N[C@@H](CCCN=C(N)N)C(=O)N1CCC[C@H]1C(=O)N[C@@H](CCCN=C(N)N)C(=O)O [RKSREWRSKKTQPRRPR] gave an MIC [2] of at least 1020 µM, an MIC [3] of at least 1020 µM and an MIC [4] of at least 1020 µM. For the same compound, the MIC [5] was at least 1020 µM.
For CC[C@H](C)[C@H](NC(=O)[C@H](CCCN=C(N)N)NC(=O)[C@H](CCCN=C(N)N)NC(=O)[C@@H]1CCCN1C(=O)[C@@H]1CCCN1C(=O)[C@H](CCCN=C(N)N)NC(=O)[C@@H]1CCCN1C(=O)[C@H](CCCN=C(N)N)NC(=O)[C@@H]1CCCN1C(=O)[C@H](CC(C)C)NC(=O)[C@H](CCCN=C(N)N)NC(=O)[C@@H]1CCCN1C(=O)[C@H](CCCCN)NC(=O)[C@H](CCCCN)NC(=O)[C@H](CC(=O)O)NC(=O)[C@@H](N)C(C)C)C(=O)N[C@@H](Cc1ccc(O)cc1)C(=O)N[C@@H](CC(N)=O)C(=O)N[C@@H](CCCN=C(N)N)C(N)=O [VDKKPRLPRPRPPRRIYNR], the MIC (Escherichia coli JW0013) was 0.663 µM (≈ 1.6 µg/mL).
CC[C@H](C)[C@H](NC(=O)[C@H](C)NC(=O)[C@H](CC(N)=O)NC(=O)[C@@H]1CCCN1C(=O)[C@@H](NC(=O)[C@H](CC(C)C)NC(=O)[C@H](CO)NC(=O)[C@H](Cc1ccccc1)NC(=O)[C@H](CC(C)C)NC(=O)[C@@H](N)Cc1ccccc1)[C@@H](C)CC)C(=O)N[C@@H](CO)C(=O)NCC(=O)N[C@@H](CC(C)C)C(=O)N[C@@H](CC(C)C)C(=O)N[C@@H](CO)C(=O)N[C@@H](C)C(=O)N[C@@H](Cc1ccccc1)C(=O)N[C@H](C=O)CCCCN [FLFSLIPNAISGLLSAFK] gave an MIC [6] of at least 250 µM, an MIC [7] of 16 µM (≈ 30.8 µg/mL) and an MIC [8] of 8 µM (≈ 15.4 µg/mL).
With CC[C@H](C)[C@H](N)C(=O)N[C@@H](CC(N)=O)C(=O)N[C@@H](Cc1c[nH]c2ccccc12)C(=O)N[C@@H](CCCCN)C(=O)N[C@@H](CCCCN)C(=O)N[C@H](C(=O)N[C@@H](CCCCN)C(=O)N[C@@H](CCCCN)C(=O)N[C@@H](CCCCN)C(=O)N[C@H](C(=O)N[C@@H](CCCCN)C(=O)NCC(=O)N[C@@H](CCSC)C(=O)N[C@@H](CC(C)C)C(N)=O)C(C)C)[C@@H](C)CC [INWKKIKKKVKGML] the MIC [9] was 4.67 µM (≈ 8 µg/mL), the MIC [10] was 9.33 µM (≈ 16 µg/mL) and the MIC [11] was at least 36.8 µM. It also gave an MIC [12] of 18.1 µM (≈ 31 µg/mL), an MIC [13] of 9.33 µM (≈ 16 µg/mL) and an MIC [14] of 9.33 µM (≈ 16 µg/mL). The MIC [15] was at least 72.9 µM, the MIC [16] was 9.33 µM (≈ 16 µg/mL) and the MIC [17] was 9.33 µM (≈ 16 µg/mL). For the same compound, the MIC [18] was at least 72.9 µM, the MIC [19] was 0.583 µM (≈ 1 µg/mL) and the MIC [20] was 1.17 µM (≈ 2 µg/mL). It also gave an MIC [21] of 1.17 µM (≈ 2 µg/mL), an MIC [22] of 1.17 µM (≈ 2 µg/mL) and an MIC [23] of 0.583 µM (≈ 1 µg/mL). It also gave an MIC [24] of at least 36.8 µM, an MIC [25] of 0.583 µM (≈ 1 µg/mL) and an MIC [26] of 0.583 µM (≈ 1 µg/mL).
With CC[C@H](C)[C@H](N)C(=O)N[C@@H](CC(N)=O)C(=O)N[C@@H](Cc1c[nH]c2ccccc12)C(=O)N[C@@H](CC(C)C)C(=O)N[C@@H](CCCCN)C(=O)N[C@H](C(=O)N[C@@H](C)C(=O)N[C@@H](C)C(=O)N[C@@H](C)C(=O)N[C@H](C(=O)N[C@@H](C)C(=O)NCC(=O)N[C@@H](CCSC)C(=O)N[C@@H](CC(C)C)C(N)=O)C(C)C)[C@@H](C)CC [INWLKIAAAVAGML] the MIC [9] was 340 µM (≈ 500 µg/mL), the MIC [10] was at least 340 µM and the MIC [11] was at least 170 µM. The MIC [12] was at least 340 µM, the MIC [13] was 85 µM (≈ 125 µg/mL) and the MIC [14] was 21.1 µM (≈ 31 µg/mL). It also gave an MIC [15] of at least 85 µM, an MIC [16] of at least 340 µM and an MIC [17] of at least 340 µM. It also gave an MIC [18] of at least 85 µM, an MIC [19] of at least 85 µM and an MIC [20] of 0.68 µM (≈ 0.999 µg/mL). The MIC [21] was 170 µM (≈ 250 µg/mL), the MIC [22] was at least 340 µM and the MIC [23] was 21.1 µM (≈ 31 µg/mL). It also gave an MIC [24] of at least 340 µM, an MIC [25] of 42.8 µM (≈ 63 µg/mL) and an MIC [26] of 1.36 µM (≈ 2 µg/mL).
Compound CC[C@H](C)[C@H](NC(=O)[C@H](CCCN=C(N)N)NC(=O)[C@H](CCCN=C(N)N)NC(=O)[C@@H]1CCCN1C(=O)[C@@H]1CCCN1C(=O)[C@H](CCCN=C(N)N)NC(=O)[C@@H]1CCCN1C(=O)[C@H](CCCN=C(N)N)NC(=O)[C@@H]1CCCN1C(=O)[C@H](CC(C)C)NC(=O)[C@H](Cc1ccc(O)cc1)NC(=O)[C@@H]1CCCN1C(=O)CNC(=O)[C@H](CCCCN)NC(=O)[C@H](CC(=O)O)NC(=O)[C@@H](N)C(C)C)C(=O)N[C@@H](Cc1ccc(O)cc1)C(=O)N[C@@H](CC(N)=O)C(=O)N[C@@H](CCCN=C(N)N)C(N)=O [VDKGPYLPRPRPPRRIYNR] has an MIC (Escherichia coli JW0013) of 1.4 µM (≈ 3.3 µg/mL).
CC[C@H](C)[C@H](NC(=O)[C@@H](N)CCCN=C(N)N)C(=O)N[C@@H](CCCN=C(N)N)C(=O)N[C@@H](CC(C)C)C(=O)N[C@@H](CC(C)C)C(=O)N[C@@H](CCC(N)=O)C(=O)N[C@@H](CCCN=C(N)N)C(=O)N[C@@H](Cc1ccccc1)C(=O)N[C@@H](CC(N)=O)C(=O)N[C@@H](CCCCN)C(=O)N[C@@H](CCCN=C(N)N)C(=O)O [RIRLLQRFNKR] showed an MIC [2] of at least 1020 µM, an MIC [3] of at least 256 µM and an MIC [4] of at least 512 µM. The MIC [5] was at least 1020 µM.
In the case of CC(C)C[C@H](NC(=O)[C@H](CCCCN)NC(=O)[C@H](CCCCN)NC(=O)[C@H](CC(C)C)NC(=O)[C@H](CC(C)C)NC(=O)[C@H](CCCCN)NC(=O)[C@H](CCCCN)NC(=O)[C@H](CC(C)C)NC(=O)[C@H](CC(C)C)NC(=O)[C@@H]1CCCN1C(=O)[C@H](CCCCN)NC(=O)[C@H](CCCCN)NC(=O)[C@H](CC(C)C)NC(=O)[C@@H](N)CC(C)C)C(N)=O [LLKKPLLKKLLKKL], the MIC [27] is reported as 12.5 µM (≈ 20.9 µg/mL), the MIC [21] is reported as 1.56 µM and > 0.78 µM and the MIC [28] is reported as 1.56 µM (≈ 2.61 µg/mL).
With CC(C)C[C@H](NC(=O)[C@H](CCCCN)NC(=O)[C@H](CCCCN)NC(=O)[C@H](CC(C)C)NC(=O)[C@H](CC(C)C)NC(=O)[C@H](CCCCN)NC(=O)[C@H](CCCCN)NC(=O)[C@H](CC(C)C)NC(=O)[C@H](CC(C)C)NC(=O)[C@@H]1CCCN1C(=O)[C@H](CCCCN)NC(=O)[C@H](CCCCN)NC(=O)[C@H](CC(C)C)NC(=O)[C@H](CC(C)C)NC(=O)[C@H](CCCCN)NC(=O)[C@@H](N)CCCCN)C(N)=O [KKLLKKPLLKKLLKKL] the MIC [27] was 3.13 µM (≈ 6.05 µg/mL), the MIC [21] was 1.56 µM and > 0.78 µM and the MIC [28] was 1.56 µM (≈ 3.01 µg/mL).
CC[C@H](C)[C@H](NC(=O)[C@H](CC(C)C)NC(=O)[C@@H](N)CS)C(=O)N[C@@H](CCSC)C(=O)N[C@@H](CCCCN)C(=O)N[C@H](C(=O)N[C@@H](CCCN=C(N)N)C(=O)N[C@@H](CCCN=C(N)N)C(=O)N[C@@H](CCCCN)C(=O)N[C@@H](CCCCN)C(=O)O)C(C)C [CLIMKVRRKK] was tested, and the MIC (Escherichia coli MG1655) was at least 100 µM and the MIC (Bacillus subtilis 168 HT) was 12.6 µM (≈ 16.1 µg/mL).
